Measurements reported in patent US20250270180A1, “MEK INHIBITORS AND THERAPEUTIC USES THEREOF” (Immuneering Corporation, priority 2020, published 2025).

Assays:
[1] = target: T1, CYP450 2C8 (Homo sapiens, UniProt P10632); assay: CYP450 panel, 2C8; conditions: 10 μM; substrate amodiaquine
T1 sequence (P10632 1-490): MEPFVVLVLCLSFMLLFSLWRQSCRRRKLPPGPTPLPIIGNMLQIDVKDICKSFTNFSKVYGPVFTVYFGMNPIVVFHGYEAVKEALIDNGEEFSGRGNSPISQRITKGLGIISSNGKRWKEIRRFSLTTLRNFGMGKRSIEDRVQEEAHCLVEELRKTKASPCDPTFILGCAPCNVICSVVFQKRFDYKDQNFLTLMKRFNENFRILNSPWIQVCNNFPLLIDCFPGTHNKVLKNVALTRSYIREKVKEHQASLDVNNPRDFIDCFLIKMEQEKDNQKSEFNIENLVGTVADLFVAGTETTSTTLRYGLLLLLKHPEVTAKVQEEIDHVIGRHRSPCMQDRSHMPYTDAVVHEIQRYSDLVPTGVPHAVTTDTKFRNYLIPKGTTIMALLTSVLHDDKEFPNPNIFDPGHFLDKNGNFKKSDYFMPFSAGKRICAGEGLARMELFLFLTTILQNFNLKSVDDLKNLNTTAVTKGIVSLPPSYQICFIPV

[2] = Plasma stability, human; assay type: in vitro ADME; conditions: 2 μM
[3] = Plasma stability, beagle dog; assay type: in vitro ADME; conditions: 2 μM
[4] = Plasma stability, CD-1 mouse; assay type: in vitro ADME; conditions: 2 μM
[5] = Absorption & efflux: Caco-2 permeability; conditions: human
[6] = test system: A549 CRAF BP (MEK phosphorylation); assay: A549-CRAF BP 100 nM, 2 h (pMEK); assay type: cell-based; conditions: Homo sapiens, A549, 2 h, phospho:total ratio normalized to DMSO control
Protocol: (§1) A549 or […] cells were treated in duplicate for two hours with compounds at varying concentrations. After two hours, the cells were lysed, snap frozen, and stored at −80° C. After storage, the lysate was quantified with the Bradford assay. Before the lysates were prepared to run on the Jess, the lysates were diluted to 1 mg/mL for pERK analysis and 1.5 mg/mL pMEK analysis using quantitative Western blotting. ERK and MEK phosphorylation levels were estimated by taking the ratio of phospho-protein to total protein and normalizing to the DMSO control. The results of this study are described in Tables 14-16.

[7] = test system: A549 pERK; assay: A549-pERK, 2 h (quantitative Western, Jess); assay type: cell-based; conditions: Homo sapiens, A549, 2 h, phospho:total ratio normalized to DMSO control; for activity at 0.01 µM: 10 nM
Protocol: as §1

[8] = target: CYP450 2C9 (Homo sapiens, UniProt P11712); assay: CYP450 panel, 2C9; conditions: 10 μM; substrate Diclofenac
CYP450 2C9, sequence (P11712 whole entry): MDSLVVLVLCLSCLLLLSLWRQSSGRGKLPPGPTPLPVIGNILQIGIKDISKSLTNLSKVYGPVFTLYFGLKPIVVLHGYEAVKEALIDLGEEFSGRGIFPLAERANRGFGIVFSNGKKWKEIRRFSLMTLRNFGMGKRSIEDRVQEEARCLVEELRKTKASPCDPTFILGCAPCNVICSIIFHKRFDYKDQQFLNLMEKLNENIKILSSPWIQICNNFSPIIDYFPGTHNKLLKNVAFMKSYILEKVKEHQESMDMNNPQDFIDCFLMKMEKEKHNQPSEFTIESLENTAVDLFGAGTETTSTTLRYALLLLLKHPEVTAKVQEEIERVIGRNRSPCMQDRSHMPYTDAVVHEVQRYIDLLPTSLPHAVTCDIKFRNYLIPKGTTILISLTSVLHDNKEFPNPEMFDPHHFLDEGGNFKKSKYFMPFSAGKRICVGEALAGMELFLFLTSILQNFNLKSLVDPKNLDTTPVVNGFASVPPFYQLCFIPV

[9] = target: CYP450 2C19 (Homo sapiens, UniProt P33261); assay: CYP450 panel, 2C19; conditions: 10 μM; substrate mephenytoin
CYP450 2C19, sequence (P33261 whole entry): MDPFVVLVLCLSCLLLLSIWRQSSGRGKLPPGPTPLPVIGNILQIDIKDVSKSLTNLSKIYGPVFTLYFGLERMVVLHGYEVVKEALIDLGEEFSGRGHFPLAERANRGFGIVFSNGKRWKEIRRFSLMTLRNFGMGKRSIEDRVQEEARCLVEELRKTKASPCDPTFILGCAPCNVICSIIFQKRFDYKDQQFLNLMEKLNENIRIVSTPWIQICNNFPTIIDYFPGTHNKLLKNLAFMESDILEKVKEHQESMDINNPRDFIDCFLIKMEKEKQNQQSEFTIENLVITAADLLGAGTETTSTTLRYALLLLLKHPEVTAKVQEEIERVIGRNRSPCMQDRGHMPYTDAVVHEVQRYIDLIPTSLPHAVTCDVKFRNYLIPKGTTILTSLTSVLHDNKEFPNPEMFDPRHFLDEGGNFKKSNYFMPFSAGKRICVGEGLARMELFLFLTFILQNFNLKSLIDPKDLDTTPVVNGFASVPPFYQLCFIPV

Structure (SMILES)	activity at 0.1 µM [6] [%]	activity at 0.01 µM [7] [%]	other results
O=c1c(O)c(-c2ccc(O)c(O)c2)oc2cc(O)cc(O)c12 [Quercetin]			2C8* [1]: 93.1
CC[C@H](C)C(=O)O[C@H]1C[C@@H](C)C=C2C=C[C@H](C)[C@H](CC[C@@H]3C[C@@H](O)CC(=O)O3)[C@H]21 [Lovastatin]			Human (% Reamining @2 hour) [2]: 81.8%; Beagle Dog (% Reamining @2 hour) [3]: 94.1%; CD-1 Mouse (% Reamining @2 hour) [4]: 0.6%
CNC(=C[N+](=O)[O-])NCCSCc1ccc(CN(C)C)o1 [Ranitidine]			Papp A→B at 2 h, 10 μM [5]: < 1 ×10⁻⁶ cm/s
CC(C)[N+](C)(CCOC(=O)C1c2ccccc2Oc2ccccc21)C(C)C [Propantheline]			Human (% Reamining @2 hour) [2]: 5.7%; Beagle Dog (% Reamining @2 hour) [3]: 58.4%; CD-1 Mouse (% Reamining @2 hour) [4]: 27.1%
CCS(=O)(=O)Nc1cccc(Cc2c(C)c3ccc(OC(=O)N(C)C)cc3oc2=O)c1F [Compound 107]	39.9	18	
CNS(=O)(=O)Nc1cccc(Cc2c(CN(C)Cc3ccccc3)c3ccc(OC(=O)N(C)C)cc3oc2=O)c1F [Compound 80]	56.1	56.4	
Cc1c(Cc2ccnc(NS(=O)(=O)C3CCC3)c2F)c(=O)oc2cc(OC(=O)N(C)C)ccc12 [Compound 125]	41.7	54.4	
CNS(=O)(=O)Nc1cccc(Cc2c(C)c3cc(Cl)c(OC(=O)N(C)C)cc3oc2=O)c1F [Compound 109]	41.9	4.51	
Nc1ccc(S(=O)(=O)Nc2ccnn2-c2ccccc2)cc1 [Sulfaphenazole]			2C9* [8]: 101.2
CCS(=O)(=O)Nc1nccc(Cc2c(C)c3ccc(OC(=O)N(C)C)cc3oc2=O)c1F [Compound 119]	66.1	64.8	
CNS(=O)(=O)Nc1cccc(Cc2c(CN(C)C)c3cc(Cl)c(OC(=O)N(C)C)cc3oc2=O)c1F [Compound 24]	55.9	42.4	
CNS(=O)(=O)Nc1cccc(Cc2c(CN(C)C)c3cc(F)c(OC(=O)N(C)C)cc3oc2=O)c1F [Compound 25]	71	66.2	
CNS(=O)(=O)Nc1cccc(Cc2c(CN(C)C3CCC3)c3ccc(OC(=O)N(C)C)cc3oc2=O)c1F [Compound 86]	53.2	96.4	
C#CCNCCc1c(Cc2cccc(NS(=O)(=O)NC)c2F)c(=O)oc2cc(OC(=O)N(C)C)ccc12 [Compound 183]	65.9	32.4	activity at 10 µM ([7]; 10 uM): 0.82%
CNS(=O)(=O)Nc1cccc(Cc2c(CN(C)CC(C)C)c3ccc(OC(=O)N(C)C)cc3oc2=O)c1F [Compound 78]	64.2	78.6	
CCCN(C)Cc1c(Cc2cccc(NS(=O)(=O)NC)c2F)c(=O)oc2cc(OC(=O)N(C)C)ccc12 [Compound 81]	78.3	57.6	
CCS(=O)(=O)Nc1nccc(Cc2c(CN(C)C)c3ccc(OC(=O)N(C)C)cc3oc2=O)c1F [Compound 148]	56.5	49.6	
CNS(=O)(=O)Nc1cccc(Cc2c(CN(C)CC#N)c3ccc(OC(=O)N(C)C)cc3oc2=O)c1F [Compound 87]	95.8	63.8	
CNS(=O)(=O)Nc1nccc(Cc2c(C)c3cc(Cl)c(OC(=O)N(C)C)cc3oc2=O)c1F [Compound 111]	48.6	4.63	
COc1ccc2[nH]c([S+]([O-])Cc3ncc(C)c(OC)c3C)nc2c1 (stereo not drawn) [Omeprazole]			2C19* [9]: 61.6
CNS(=O)(=O)Nc1cccc(Cc2c(CN(C)CC3CCC3)c3ccc(OC(=O)N(C)C)cc3oc2=O)c1F [Compound 88]	53.6	142	
Cc1c(Cc2cccc(NS(=O)(=O)C(C)C)c2F)c(=O)oc2cc(OC(=O)N(C)C)ccc12 [Compound 115]	39.2	13.5	
Cc1c(Cc2ccnc(NS(=O)(=O)C(C)C)c2F)c(=O)oc2cc(OC(=O)N(C)C)ccc12 [Compound 114]	59.9	36.6	
CNS(=O)(=O)Nc1cccc(Cc2c(CN(C)CC3CC3)c3ccc(OC(=O)N(C)C)cc3oc2=O)c1F [Compound 84]	87.3	83.2	
CNS(=O)(=O)Nc1cccc(Cc2c(CNc3cncs3)c3ccc(OC(=O)N(C)C)cc3oc2=O)c1F [Compound 91]	84.2	74.6	
CNS(=O)(=O)Nc1cccc(Cc2c(CN3CC4(CCC4)C3)c3ccc(OC(=O)N(C)C)cc3oc2=O)c1F [Compound 153]	54.1	50.2	
CNS(=O)(=O)Nc1cccc(Cc2c(CNCC#N)c3ccc(OC(=O)N(C)C)cc3oc2=O)c1F [Compound 33]	51.4	55.4	
CNS(=O)(=O)Nc1cccc(Cc2c(C)c3cc(C)c(OC(=O)N(C)C)cc3oc2=O)c1F [Compound 108]	47.9	5.78	
CNS(=O)(=O)Nc1cccc(Cc2c(CNc3ccsc3)c3ccc(OC(=O)N(C)C)cc3oc2=O)c1F [Compound 90]	71	72.4	
